The record followed here is patent US6025340A, “Surface expression of enzyme in gene directed prodrug therapy” (priority 1994, dated 2000).

A word on the IC50: it is the midpoint of a concentration-inhibition curve. A higher IC50 goes with lower potency.

For series [1], the system named is MDA MB361 transfected cells (CPG2-expressing line and control line). Put plainly: Sulphorhodamine B cytotoxicity assay. It is filed as cell-based. The conditions noted are these: 4 days incubation. The method, then:
Prodrug 2 was also assayed (FIG. 12) in the MDA MB361 transfected cells obtained in Preparative Example 3 using a sulphorhodamine B cytotoxicity assay which was conducted by plating 5000 cells per well in a 96-well microtitre dish. The cells were plated in 160 μl of DMEM medium. After incubation over night the drug or appropriate controls made up in DMEM containing 5% serum was added to the wells in a 40 μl volume. The cells were incubated for 4 days under standard conditions. Following this the medium was removed and the cells treated with ice-cold 10% TCA (trichloroacetic acid) on ice for about 30 minutes. The TCA was removed and the cells rinsed for adding 18 μl of 0.4% sulphorhodamine B (SRB) which was left to stain the cells for 10 minutes. Following staining the cells were rinsed in TCA and air dried before addition of 18 μl of 10 mM TRIS and cell viability was then read. […] (see FIG. 12)
A general note: In SRB staining, fixed cells bind dye roughly in proportion to their protein.

The test system of series [2] is MDA MB 361 cell line M2 constitutively expressing β-galactosidase. Put plainly: Cell viability by [3H]-thymidine incorporation, stable control line. Type of series: cell-based. As for the experimental part: (§1) CPG2(surface) QQQ was cloned into pMCEF-Plink as an Nco1/Xba fragment; this plasmid is called pMCEFCPG2(surface)QQQ. MDA361B cells were transfected with either pMCEFCPG2(surface)QQQ, or with pMCEFlacZ according to the protocol described in the Comparative Example and were treated as for the NIH3T3 cells to generate G418 colonies. The G418 resistant colonies were tested for CPG2(surface)QQQ expression by immunoprotein blot analysis, as described for the NIH3T3 cells. From these analyses, two cell lines, M2 which expresses β-galactosidase and M38, which expresses CPG2(surface)QQQ were selected for further testing. […] The expression of β-galactosidase by line M2 was confirmed by enzymatic assay (FIG. 10B, lane 1 contains M2 extract, lane 2 a control extract).
These cell lines were tested for sensitivity to the CMDA prodrug and prodrug 2. 1×10^5 cells were plated into each well of a 24 well plate. The cells were incubated for 48 hours at 37° C. […] The viability of the cells was then determined by using [^3 H]-thymidine incorporation.
In order to examine the bystander effect with the MDA MB 361 cells constitutively expressing CPG2(surface)QQQ, the M38 cell line, the M2 cell line, or a 1:10 mixture of M38: M2 cells were plated (1×10^4 cells) into the wells of a 24 well plate, and incubated for 48 hours. […] The survival of the cells was then determined by [^3 H-methyl] thymidine incorporation.
A general note: Uptake of a labelled nucleoside into DNA is a usual measure of proliferation.

Series [3] has as its system mixture of NIH3T3 cell lines #3 and #16. Put plainly: Bystander effect, mixed cell lines, [3H]-thymidine incorporation. It is filed as cell-based, murine. Particulars: 40% of the cells expressing CPG2(surface)LNLL; 250 μM or 1000 μM CMDA for 60 minutes. The method, then: Cell lines #3 and #16 obtained in Preparative Example 2 were tested for cytotoxicity with the CMDA pro-drug. 1×10^5 cells were plated into each well of 24 well dishes, incubated for 40 hours and then treated with increasing concentrations of CMDA at 37° C. for 60 minutes. After a further 6 hour incubation, 10% of the cells were re-plated into 24 well dishes, incubated for a further 5 days and cell survival was determined by [^3 H]-thymidine incorporation.
The bystander effect was determined by mixing cell lines #3 and #16 obtained in Preparative Example 2 at a variety of concentrations as indicated and a total of 1×10^5 cells were plated per well in 24 well plates. The cells were incubated and treated as described in Example 3, except that they were treated with either 250 μM or 1000 μM CMDA for 60 minutes as indicated. The cell survival was determined as in Example 3.

Series [4] has as its system NIH3T3 cell line #16 constitutively expressing CPG2(surface)LNLL. Put plainly: Cell survival by [3H]-thymidine incorporation, stable line. Particulars: Mus musculus, 60 minutes treatment at 37° C., survival after 5 days. It is filed as cell-based, murine. The method, then:
(§2) Stable cell lines were prepared with NIH3T3 cells to constitutively express CPG2 (surface) LNLL, or as a control the lacZ gene product (β-galactosidase). In order to do this, NIH3T3 cells were transfected with pMCEF-CPG2(surface)LNLL or pMCEFlacZ as described in Comparative Example 1 above, and two days after transfection, the cells were plated at low density into medium containing G418 at 1 mg/ml. Colonies coming from single cells could be observed about two weeks later and these were cloned and grown up individually. The expression of CPG2(surface) was determined by immunoprotein blotting of […] of cell extract (extracted as described in the Comparative Example above) from each of the G418 resistant colonies with the antiserum from the Comparative Example 1 above. The cell line #16 which expresses high levels of CPG2(surface)LNLL (FIG. 6A) and cell line #3, which expresses the β-galactosidase (see below) were selected for further investigation. […] 250 μl of 1 MNa2 CO3 was added to the sample and the OD420 was measured.
(§3) Cell lines #3 and #16 obtained in Preparative Example 2 were tested for cytotoxicity with the CMDA pro-drug. […] After a further 6 hour incubation, 10% of the cells were re-plated into 24 well dishes, incubated for a further 5 days and cell survival was determined by [^3 H]-thymidine incorporation.

Series [5] has as its system NIH3T3 cells transfected with MLVβplink. Put plainly: Cytotoxicity assay, [3H]-thymidine incorporation, transiently transfected control cells. It is filed as cell-based, murine. The conditions noted are these: CMDA 0.5 mM for 3 hours or 24 hours. As for the experimental part: (§4) The ability of CPG2(surface) to kill NIH3T3 cells in the presence of the CMDA pro-drug was examined. Three sets of NIH3T3 cells were prepared, each of which contained one dish of cells transfected with MLVβplink, one dish of cells transfected with MLVCPG2(surface) or one dish of cells transfected with MLVCPG2(surface)LNLL. The cells were incubated for 42 hours following the transfection and then set 1 was incubated in the presence of prodrug vehicle (5 mM Hepes, 0.5% v/v DMSO, pH7.0; final concentrations) for 24 hours. Set 2 was incubated in the presence of the CMDA prodrug (0.5 mM final concentration) for 3 hours. Set 3 was incubated in CMDA (0.5 mM) for 24 hours. Following prodrug treatment, the cells were washed three times with 5 ml 10% FCS/ DMEM and sets 1 and 3 incubted in fresh medium for a further 24 hours, set 2 for 45 hours. The cells were then passaged into fresh culture dishes, seeded at 1×10^5 cells/ 35 mm dish in 2 ml FCS/ DMEM. After a further 72 hour incubation cell growth was assessed by [3H]-thymidine incorporation.
For thymidine incorporaion, 1 μCi of [methyl-^3 H]thymidine was added to each well (2 ml medium) and incubated for 5 hours at 37° C. […] The DNA was extracted with 1 ml 0.1 M NaOH, 1% SDS at room temperature for 5 minutes, added to 4 ml scintilation fluid and the incorporated thymidine determined by scintillation counting.

The subject of series [6] is NIH3T3 cell line #3 constitutively expressing β-galactosidase. Put plainly: Cell survival by [3H]-thymidine incorporation, stable control line. Type of series: cell-based, murine. Particulars: increasing concentrations, 60 minutes at 37° C. As for the experimental part: as §2, §3
Series [7] has as its system NIH3T3 cells transfected with MLVCPG2(surface). Put plainly: Cytotoxicity assay, [3H]-thymidine incorporation, transiently transfected cells. Type of series: cell-based, murine. The conditions noted are these: CMDA 0.5 mM. As for the experimental part:
as §4
(§5) For thymidine incorporaion, 1 μCi of [methyl-^3 H]thymidine was added to each well (2 ml medium) and incubated for 5 hours at 37° C. The cells were washed twice with PBSA (4° C.) and fixed with 5% w/v trichloroacetic acid (TCA) in water at 4° C. for 20 minutes. The TCA was removed and the cells washed twice with 2 ml methanol and air dried. The DNA was extracted with 1 ml 0.1 M NaOH, 1% SDS at room temperature for 5 minutes, added to 4 ml scintilation fluid and the incorporated thymidine determined by scintillation counting.

In series [8] the test system is NIH3T3 cells transfected with MLVCPG2(surface)LNLL. Described as above. It is filed as cell-based, murine. The conditions noted are these: CMDA 0.5 mM. The method, then: as §4, §5
Series [9] relates to MDA MB 361 cell line M38 constitutively expressing CPG2(surface)QQQ. Put plainly: Cell viability by [3H]-thymidine incorporation, stable line. Particulars: for sensitivity to prodrug compared with line M2: 60 minutes at 37° C., viability after 5 days. It is filed as cell-based. The method, then: as §1
These cell lines were tested for sensitivity to the CMDA prodrug and prodrug 2. 1×10^5 cells were plated into each well of a 24 well plate. The cells were incubated for 48 hours at 37° C. They were then incubated in increasing concentrations of either CMDA or prodrug 2 for 60 minutes at 37° C., washed twice, returned to medium and incubated for a further 5 days. The viability of the cells was then determined by using [^3 H]-thymidine incorporation.
(§6) In order to examine the bystander effect with the MDA MB 361 cells constitutively expressing CPG2(surface)QQQ, the M38 cell line, the M2 cell line, or a 1:10 mixture of M38: M2 cells were plated (1×10^4 cells) into the wells of a 24 well plate, and incubated for 48 hours. The cells were then treated with varying concentrations of prodrug 2 for 60 min, washed twice with fresh medium and incubated in fresh medium for 5 days. The survival of the cells was then determined by [^3 H-methyl] thymidine incorporation.

The subject of series [10] is 1:10 mixture of M38:M2 MDA MB 361 cells. Put plainly: Bystander effect, mixed cell lines, [3H]-thymidine incorporation. Type of series: cell-based. The conditions noted are these: Example 7. As for the experimental part: as §6

SMILES strings stand for the structures.

For the compound `[NH2][Pt]([NH2])([Cl])[Cl]` [CDDP, Cisplatin], the “difference in susceptibility, CPG2-expressing line versus control line” value in [1] is “not found to be any difference”.
Take `CS(=O)(=O)OCCN(CCCl)c1ccc(C(=O)N[C@@H](CCC(=O)O)C(=O)O)cc1` [CMDA, N-4-[(2-chloroethyl)(2-mesyloxyethyl)amino]benzoyl-L-glutamic acid]: in series [2] (60 minutes at 37° C., up to highest concentration tested), the sensitivity to prodrug result is “did not show any sensitivity”. Besides, in series [3], the cells killed entry was “greater than 80%”. Further, the IC50 in series [4] is 125 µM. Further, the “effect of prodrug treatment on growth rate” value in [5] was “minimal effect”. Also, the “sensitivity to prodrug (cell survival)” value in series [6] was “not sensitive to even the highest concentration”. Also, the “effect of prodrug treatment on cell growth” value was “unaffected” in [7] (3 hour prodrug treatment) and “complete cell death” in series [8] (24 hour prodrug treatment). For the same compound, the inhibition at 500 µM in series [7] (Mus musculus, NIH3T3, 24 hour prodrug treatment, read-out: inhibition of cell growth) was -87%; in series [8] (Mus musculus, NIH3T3, 3 hour prodrug treatment, read-out: reduction in cell growth) it was -20%. In [9], the “sensitivity to prodrug compared with line M2” value was “more sensitive”.
For the compound `O=C(O)CC[C@H](NC(=O)Oc1ccc(N(CCI)CCI)cc1)C(=O)O` [prodrug 2, N-(4-[bis(2-iodoethyl)amino]phenoxycarbonyl)-L-glutamic acid], in [2] (Example 7, 60 min treatment, survival after 5 days), the IC50 is ~200 µM. Further, in series [10], the “fold change of IC50 in 1:10 mixture versus M2” value is reported as -10 fold. For the same compound, the “sensitivity to prodrug compared with line M2” value in series [9] is reported as “more sensitive”. Further, the “fold more sensitive, M38 cells versus M2 cells” value in series [9] (Example 5, 1×10^5 cells per well, 60 minutes treatment) is given as ~200 fold.
